# System: Lung bronchial epithelial cells (16HBEo-)
# Experimental: FIG. 14 illustrates the effects of a physiologic (10% linear), cyclic mechanical strain on the permeability of an epithelial barrier. Lung bronchial epithelial cells (16HBEo-) were seeded at a density of 250'000 cells/cm^2 onto the fibronectin-coated culturing membrane. The cells were allowed to adhere and to grow for 72 h. The cells were exposed to cyclic strain (10% linear, 0.2 Hz) for 19 h, whereas the control was kept at static conditions. […] After 2 h of incubation, the permeability of each molecule was measured with a fluorescence multiplate reader (Tecan Infinite M1000; Ex:460/Em:515 & Ex:553/Em:627).
substance,measurement,value
FITC-sodium,transmembrane permeability of stretched cells compared to control cells in static conditions,significantly increased transmembrane permeability

# — patent US11473045B2, “Device for in-vitro modelling in-vivo tissues of organs” (priority 2013, dated 2022)
